Data from patent US8952159B2, “Method for the production of amorphous rifaximin” (priority 2009, dated 2015).
Values after ≈ are worked out from the molar mass of the structure shown.

Experiment: Comparative test of solubility in water of different forms of rifaximin (spectrophotometric, absorbance at 450.50 nm)
Assay type: physicochemical
Settings: suspension in deionized water, constant stirring; for Solubility in water: 25° C.
Description: The solubility in water of different forms of rifaximin was evaluated by means of spectrophotometric method, by performing the analyses on a Lambda10 (Perkin Elmer) apparatus. The tests were performed at room temperature in demineralized water according to the following methodology. 1 g of commercial rifaximin (identified as form γ by X diffractometry) was dried in thermogravimetric apparatus at 105° C. until constant weight. 50.3 mg of the dried powder were weighed and brought in solution with deionized water in 2-L calibrated flask (solution 1). Under these conditions rifaximin was fully dissolved. On a portion of the obtained solution the spectral scanning was performed in the range of wavelengths comprised between 190 and 800 nm, by using as white deionized water. The obtained absorption spectrum points out an isolated maximum at 450.50 nm and such wavelength was used for the analytical measures. The calibration straight line was obtained by dilution of portions of the solution 1, thus obtaining the solution 2 (dilution 1:2.5), the solution 3 (1:10), the solution 4 (1:20) and the solution 5 (1:50). The straight line resulted to follow the Lambert-Beer law, showing linearity in the concentration range of the five measured reference solutions. For the tests for comparing the solubilities of the different forms, the absorbance of samples obtained from rifaximin suspensions in water excess subjected to constant stirring at 25° C. was measured. After drying at 105° C. until weight constancy, quantities properly weighed of the samples under examination (for a value of about 15 mg) were placed in becker under magnetic stirring, at 25° C. with 80 ml of deionized water. Measures on different samples obtained according to the methodologies reported in the examples 8 and 13 (defined full amorphous), on amorphous ones obtained as described in the examples 1 and 5 (with two halos) and compared to those of commercially available rifaximin, verified as form γ. In different periods of time comprised between 0.5 and 180 minutes, about 2-ml collections were performed, placed in test tube, having the prudence of preventing the collection of the suspended solid by means of filtration with filters for HPLC with porosity 0.2 μm. 0.3 ml of the collected solution were read at the UV by measuring the absorbance 450.50 nm. The samples with higher concentration, with absorbances so as to fall out of the range of the calibration straight line, were diluted until going back to the calibration range. Each experimental point consisted in 3 measures, the values thereof, coincident within 5% of error, were mediated. The concentrations are expressed in grams/liter.

| solubility at 1 min (deionized water, 25 °C, water, thermodynamic from solid, time 1 min) [µg/mL] | Solubility in water (time 0.5 min) [g/L] | Solubility in water (time 2 min) [g/L] | Solubility in water (time 5 min) [g/L] | Solubility in water (time 10 min) [g/L] | Solubility in water (time 30 min) [g/L] | Solubility in water (time 60 min) [g/L] | Solubility in water (time 120 min) [g/L] | Solubility in water (time 180 min) [g/L] | solubility at 120 min (deionized water, 25 °C, water, thermodynamic from solid, time 120 min) [µg/mL] | SMILES |
| --- | --- | --- | --- | --- | --- | --- | --- | --- | --- | --- |
| – | – | – | 0.0071 (≈ 9.03 µM) | 0.015 (≈ 19.1 µM) | 0.027 (≈ 34.4 µM) | 0.037 (≈ 47.1 µM) | 0.044 (≈ 56 µM) | 0.046 (≈ 58.5 µM) | – | CO[C@H]1/C=C/O[C@@]2(C)Oc3c(C)c(O)c4c(O)c(c5c(nc6cc(C)ccn65)c4c3C2=O)NC(=O)/C(C)=C\C=C\[C@H](C)[C@H](O)[C@@H](C)[C@@H](O)[C@@H](C)[C@H](OC(C)=O)[C@@H]1C [example 5, rifaximin] |
| – | – | – | 0.031 (≈ 39.4 µM) | 0.055 (≈ 70 µM) | 0.072 (≈ 91.6 µM) | 0.081 (≈ 103 µM) | 0.086 (≈ 109 µM) | 0.089 (≈ 113 µM) | – | CO[C@H]1/C=C/O[C@@]2(C)Oc3c(C)c(O)c4c(O)c(c5c(nc6cc(C)ccn65)c4c3C2=O)NC(=O)/C(C)=C\C=C\[C@H](C)[C@H](O)[C@@H](C)[C@@H](O)[C@@H](C)[C@H](OC(C)=O)[C@@H]1C [example 13, rifaximin] |

Further lines, the compound ahead of its results:

| SMILES | solubility at 1 min (deionized water, 25 °C, water, thermodynamic from solid, time 1 min) [µg/mL] | Solubility in water (time 0.5 min) [g/L] | Solubility in water (time 2 min) [g/L] | Solubility in water (time 5 min) [g/L] | Solubility in water (time 10 min) [g/L] | Solubility in water (time 30 min) [g/L] | Solubility in water (time 60 min) [g/L] | Solubility in water (time 120 min) [g/L] | Solubility in water (time 180 min) [g/L] | solubility at 120 min (deionized water, 25 °C, water, thermodynamic from solid, time 120 min) [µg/mL] |
| --- | --- | --- | --- | --- | --- | --- | --- | --- | --- | --- |
| CO[C@H]1/C=C/O[C@@]2(C)Oc3c(C)c(O)c4c(O)c(c5c(nc6cc(C)ccn65)c4c3C2=O)NC(=O)/C(C)=C\C=C\[C@H](C)[C@H](O)[C@@H](C)[C@@H](O)[C@@H](C)[C@H](OC(C)=O)[C@@H]1C [form γ, rifaximin] | 5.4 (≈ 6.87 µM) | 0.0027 (≈ 3.44 µM) | 0.0059 (≈ 7.51 µM) | 0.0082 (≈ 10.4 µM) | 0.015 (≈ 19.1 µM) | 0.023 (≈ 29.3 µM) | 0.037 (≈ 47.1 µM) | 0.043 (≈ 54.7 µM) | 0.042 (≈ 53.4 µM) | – |
| CO[C@H]1/C=C/O[C@@]2(C)Oc3c(C)c(O)c4c(O)c(c5c(nc6cc(C)ccn65)c4c3C2=O)NC(=O)/C(C)=C\C=C\[C@H](C)[C@H](O)[C@@H](C)[C@@H](O)[C@@H](C)[C@H](OC(C)=O)[C@@H]1C [example 1, rifaximin] | – | 0.00111 (≈ 1.41 µM) | 0.0051 (≈ 6.49 µM) | 0.0069 (≈ 8.78 µM) | 0.014 (≈ 17.8 µM) | 0.025 (≈ 31.8 µM) | 0.036 (≈ 45.8 µM) | 0.046 (≈ 58.5 µM) | 0.045 (≈ 57.3 µM) | – |
| CO[C@H]1/C=C/O[C@@]2(C)Oc3c(C)c(O)c4c(O)c(c5c(nc6cc(C)ccn65)c4c3C2=O)NC(=O)/C(C)=C\C=C\[C@H](C)[C@H](O)[C@@H](C)[C@@H](O)[C@@H](C)[C@H](OC(C)=O)[C@@H]1C [example 8, rifaximin] | – | 0.0033 (≈ 4.2 µM) | 0.013 (≈ 16.5 µM) | 0.029 (≈ 36.9 µM) | 0.051 (≈ 64.9 µM) | 0.076 (≈ 96.7 µM) | 0.082 (≈ 104 µM) | – | 0.0864 (≈ 110 µM) | 85 (≈ 108 µM) |
